Measurements: patent US8703479B2, “Technology and method to study microbial growth and adhesion to host-related surfaces and the host-microbiota interaction” (Universiteit Gent, priority 2009, dated 2014)

Key:
[1] = polycarbonate membrane, 200 μm-thick mucus layer, room temperature
Method: The adhesion module was built with a functional double layer separating the completely anaerobic upper chamber (95% N2-5% CO2) from the aerobic lower chamber (95% O2-5% CO2). Oxygen concentration in the upper chamber was measured by means of a Hach Lange luminescent LDO oxygen probe. Experiments were conducted at room temperature with a 200 μm-thick mucus layer using a polycarbonate or a polyamide membrane.

[2] = test system: suspension of the ascending colon compartment of a SHIME system; test: Adhesion potential of a mixed microbial community under short-term prebiotic treatment in the adhesion module; details: ascending colon SHIME suspension in luminal chamber, data not shown
Source text: A second objective of working with the in vitro adhesion module is to explore the adhesion potential of selected microbial cultures in the presence of a complex microbial community relevant for the terminal ileum and colon respectively and to evaluate the host cellular response towards this community. To this end, a suspension of the ascending colon compartment of a SHIME system was sampled and inoculated in the luminal chamber of the adhesion module in presence of inulin with a degree of polymerization between 2 and 20, and arabinoxylans (AX) with a degree of substitution of 0.7, and a strongly varying degree of polymerization (on average 200). The short-term effect of these functional foods was evaluated.

[3] = test system: mucin-adhered microbiota of the SHIME; test: Long-term prebiotic treatment in the SHIME with adhesion modules, plate counts, Adhesion Related Prebiotic Index; set-up: species or system human; details: 2.5 g/L; for Adhesion Related Prebiotic Index (AR-PI): mucin-adhered microbial community, plate counts before and after the treatment
Source text: The aim of this study was to evaluate the effect of known prebiotic compounds (inulin and arabinoxylan—AX) on the microbiota associated with the gut wall in different areas of the GI tract and under long-term representative conditions. For this purpose, the adhesion module was used together with a well-validated gastrointestinal model—the Simulator of the Human Intestinal Microbial Ecosystem (SHIME). Clearly, the inherent adhesion potency, the specific growth rate, the state of mucus layer and interaction with endogenous microorganisms (adhered or in suspension) determined the microbial potency to colonize the intestinal epithelium.
The reactor setup is adapted from the system, representing the gastrointestinal tract of the adult human, as described by Molly et al. (1993). The SHIME consists of a succession of five reactors simulating the different parts of the human gastrointestinal tract. The first two reactors are of the fill-and-draw principle to simulate different steps in food uptake and digestion, with peristaltic pumps adding a defined amount of SHIME feed (140 mL 3×/day) and pancreatic and bile liquid (60 mL 3×/day), respectively to the stomach (V1) and duodenum (V2) compartment and emptying the respective reactors after specified intervals. The last three compartments are continuously stirred reactors with constant volume and pH control. Retention time and pH of the different vessels are chosen in order to resemble in vivo conditions in the different parts of the gastrointestinal tract. The overall residence time of the last three vessels, simulating the large intestine, is 76 h. Upon inoculation with fecal microbiota, these reactors simulate the ascending (V3), transverse (V4) and descending (V5) colon. Inoculum preparation, retention time, pH, temperature settings and reactor feed composition were previously described by Possemiers et al. (2004). […]
During the basal period, the SHIME reactor is operated under nominal conditions. Parameters such as short chain fatty acid (SCFA) production and ammonium production are determined 3 times/week and plate count analyses are performed once a week for selected bacterial groups (total (an) aerobes, total Clostridia, lactobacilli, bifidobacteria, total coliforms, staphylococci). The results of these analyses serve as the background values to be used to compare the measured parameters from the treatment period. […]
During the treatment period, the SHIME reactor is operated under nominal conditions, but with a modified diet containing a lower amount of starch in the medium compared to that of the basal period and the effect of a specific compound (inulin or arabinoxylan—2.5 g/L) is tested. SCFA and ammonium production are determined 3 times/week and plate count analysis is performed once a week. […]

[4] = Adhesion of a pure bacterial culture to the mucus-covered layer of the adhesion module; details: contact time […]
Method: A first objective of working with the in vitro adhesion module is to explore the adhesion potential of pure cultures of gut microorganisms vs mixed microbial communities onto a mucus-covered layer. A culture of Lactobacillus rhamnosus GG was grown in relevant medium and inoculated in the luminal chamber of the adhesion module. The luminal chamber of a second system was inoculated with an in vitro adapted microbial community originated from the ascending colon of a Simulator of the Human Intestinal Microbial Ecosystem (SHIME) reactor. The adhesion module consisted of a luminal chamber containing the growth medium and the inoculated bacterial strain and a basal chamber from which oxygen could diffuse across a semi-permeable polycarbonate membrane, which was covered on its luminal side with a mucin layer, relevant for the specific region of the gastrointestinal tract. The contact time between the inoculated bacteria and the functional layer was established in 1.5 h. […] The obtained suspension was analyzed for microbial concentration using plate counts specific for different bacterial groups. […] Although not further analyzed at this moment, also the medium and optionally present cells of the basal chamber can be sampled and analyses can be conducted to estimate the simulated host's cellular response.

O=O [Oxygen]
relative diffusion coefficient (DO2) [1]: 9.8.10^−6 cm^2/sec

arabinoxylan [AX]
effect on adhesion capacity of the investigated bacterial groups [2]: decreased the adhesion capacity of all the investigated groups
effect on the luminal and mucin-associated bacteria compared to that of inulin ([3]; long-term SHIME treatment): stronger and more permanent
stimulation of the adhered lactobacilli ([3]; long-term SHIME treatment): particularly potent
Adhesion Related Prebiotic Index (AR-PI) [3]: 70

Lactobacillus rhamnosus GG
factor by which adhesion to the mucin-agar layer is higher than to mucin-free agar [4]: 6.19
percentage adhesion ([4]; mucin-agar layer, plate counts): 15.7±3.2%

inulin
effect on adhesion capacity of the investigated bacterial groups [2]: less or no influence
Adhesion Related Prebiotic Index (AR-PI) [3]: 14
